Source: PubChem BioAssay (NCI)
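These data come from cells grown in 96-well plates and exposed to compound for 48 hours at five concentrations. TGI is the concentration that stops growth completely.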

What was measured:
Assay in all cases: NCI-60 cell line screen, 48 h
786-0 renal = tested on: 786-0 renal
A498 renal = tested on: A498 renal
A549 NSCLC = tested on: A549 NSCLC
ACHN renal = tested on: ACHN renal
CAKI-1 renal = tested on: CAKI-1 renal
CCRF-CEM leukemia = tested on: CCRF-CEM leukemia
COLO 205 colon = tested on: COLO 205 colon
DLD-1 colon = tested on: DLD-1 colon
DMS 114 small cell lung = tested on: DMS 114 small cell lung
DMS 273 small cell lung = tested on: DMS 273 small cell lung
EKVX NSCLC = tested on: EKVX NSCLC
HCC-2998 colon = tested on: HCC-2998 colon
HCT-116 colon = tested on: HCT-116 colon
HCT-15 colon = tested on: HCT-15 colon
HL-60(TB) leukemia = tested on: HL-60(TB) leukemia
HOP-18 NSCLC = tested on: HOP-18 NSCLC
HOP-62 NSCLC = tested on: HOP-62 NSCLC
HOP-92 NSCLC = tested on: HOP-92 NSCLC
HT29 colon = tested on: HT29 colon
IGROV1 ovarian = tested on: IGROV1 ovarian
K-562 leukemia = tested on: K-562 leukemia
KM20L2 colon = tested on: KM20L2 colon
LOX IMVI melanoma = tested on: LOX IMVI melanoma
LXFL 529 NSCLC = tested on: LXFL 529 NSCLC
M14 melanoma = tested on: M14 melanoma
M19-MEL melanoma = tested on: M19-MEL melanoma
MALME-3M melanoma = tested on: MALME-3M melanoma
MOLT-4 leukemia = tested on: MOLT-4 leukemia
NCI-H226 lung = tested on: NCI-H226 lung
NCI-H23 lung = tested on: NCI-H23 lung
NCI-H460 lung = tested on: NCI-H460 lung
OVCAR-3 ovarian = tested on: OVCAR-3 ovarian
OVCAR-4 ovarian = tested on: OVCAR-4 ovarian
OVCAR-8 ovarian = tested on: OVCAR-8 ovarian
RPMI-8226 leukemia = tested on: RPMI-8226 leukemia
RXF 393 renal = tested on: RXF 393 renal
RXF-631 renal = tested on: RXF-631 renal
SF-268 CNS = tested on: SF-268 CNS
SF-295 CNS = tested on: SF-295 CNS
SF-539 CNS = tested on: SF-539 CNS
SK-MEL-28 melanoma = tested on: SK-MEL-28 melanoma
SK-MEL-5 melanoma = tested on: SK-MEL-5 melanoma
SK-OV-3 ovarian = tested on: SK-OV-3 ovarian
SN12C renal = tested on: SN12C renal
SNB-19 CNS = tested on: SNB-19 CNS
SNB-75 CNS = tested on: SNB-75 CNS
SNB-78 CNS = tested on: SNB-78 CNS
SR leukemia = tested on: SR leukemia
SW-620 colon = tested on: SW-620 colon
TK-10 renal = tested on: TK-10 renal
U251 CNS = tested on: U251 CNS
UACC-257 melanoma = tested on: UACC-257 melanoma
UACC-62 melanoma = tested on: UACC-62 melanoma
UO-31 renal = tested on: UO-31 renal
XF 498 CNS = tested on: XF 498 CNS
BT-549 breast = tested on: BT-549 breast
DU-145 prostate = tested on: DU-145 prostate
HS 578T breast = tested on: HS 578T breast
KM12 colon = tested on: KM12 colon
MCF7 breast = tested on: MCF7 breast
MDA-MB-435 = tested on: MDA-MB-435
MDA-N = tested on: MDA-N
NCI-H522 lung = tested on: NCI-H522 lung
NCI/ADR-RES ovarian = tested on: NCI/ADR-RES ovarian
OVCAR-5 ovarian = tested on: OVCAR-5 ovarian
PC-3 prostate = tested on: PC-3 prostate
SK-MEL-2 melanoma = tested on: SK-MEL-2 melanoma

## Cn1cc2c(n1)c(N/N=C/c1ccccc1)nn1nnnc21
786-0 renal
  TGI: > 100 µM
A498 renal
  TGI: > 100 µM
A549 NSCLC
  TGI: > 100 µM
ACHN renal
  TGI: > 100 µM
CAKI-1 renal
  TGI: > 100 µM
CCRF-CEM leukemia
  TGI: > 100 µM
COLO 205 colon
  TGI: > 100 µM
DLD-1 colon
  TGI: > 100 µM
DMS 114 small cell lung
  TGI: > 100 µM
DMS 273 small cell lung
  TGI: > 100 µM
EKVX NSCLC
  TGI: > 100 µM
HCC-2998 colon
  TGI: > 100 µM
HCT-116 colon
  TGI: > 100 µM
HCT-15 colon
  TGI: > 100 µM
HL-60(TB) leukemia
  TGI: > 100 µM
HOP-18 NSCLC
  TGI: > 100 µM
HOP-62 NSCLC
  TGI: > 100 µM
HOP-92 NSCLC
  TGI: > 100 µM
HT29 colon
  TGI: > 100 µM
IGROV1 ovarian
  TGI: > 100 µM
K-562 leukemia
  TGI: > 100 µM
KM20L2 colon
  TGI: > 100 µM
LOX IMVI melanoma
  TGI: > 100 µM
LXFL 529 NSCLC
  TGI: > 100 µM
M14 melanoma
  TGI: > 100 µM
M19-MEL melanoma
  TGI: > 100 µM
MALME-3M melanoma
  TGI: > 100 µM
MOLT-4 leukemia
  TGI: > 100 µM
NCI-H226 lung
  TGI: > 100 µM
NCI-H23 lung
  TGI: > 100 µM
NCI-H460 lung
  TGI: > 100 µM
OVCAR-3 ovarian
  TGI: > 100 µM
OVCAR-4 ovarian
  TGI: > 100 µM
OVCAR-8 ovarian
  TGI: > 100 µM
RPMI-8226 leukemia
  TGI: > 100 µM
RXF 393 renal
  TGI: > 100 µM
RXF-631 renal
  TGI: > 100 µM
SF-268 CNS
  TGI: > 100 µM
SF-295 CNS
  TGI: > 100 µM
SF-539 CNS
  TGI: > 100 µM
SK-MEL-28 melanoma
  TGI: > 100 µM
SK-MEL-5 melanoma
  TGI: > 100 µM
SK-OV-3 ovarian
  TGI: > 100 µM
SN12C renal
  TGI: > 100 µM
SNB-19 CNS
  TGI: > 100 µM
SNB-75 CNS
  TGI: > 100 µM
SNB-78 CNS
  TGI: > 100 µM
SR leukemia
  TGI: > 100 µM
SW-620 colon
  TGI: > 100 µM
TK-10 renal
  TGI: > 100 µM
U251 CNS
  TGI: > 100 µM
UACC-257 melanoma
  TGI: > 100 µM
UACC-62 melanoma
  TGI: > 100 µM
UO-31 renal
  TGI: > 100 µM
XF 498 CNS
  TGI: > 100 µM

## C[n+]1c2ccccc2c(CNC(CCC(N)=O)C(=O)O)c2ccccc21 (centres undefined)
786-0 renal
  TGI: 3.22 µM
A498 renal
  TGI: 6.93 µM
A549 NSCLC
  TGI: 11.8 µM
ACHN renal
  TGI: 5.41 µM
BT-549 breast
  TGI: 10.1 µM
CAKI-1 renal
  TGI: 7.53 µM
CCRF-CEM leukemia
  TGI: 3.29 µM
COLO 205 colon
  TGI: 2.14 µM
DLD-1 colon
  TGI: 1.83 µM
DMS 114 small cell lung
  TGI: 2.04 µM
DMS 273 small cell lung
  TGI: 4.44 µM
DU-145 prostate
  TGI: 11.4 µM
EKVX NSCLC
  TGI: 12.9 µM
HCC-2998 colon
  TGI: 11.2 µM
HCT-116 colon
  TGI: 1.21 µM
HCT-15 colon
  TGI: 4.31 µM
HL-60(TB) leukemia
  TGI: 7.65 µM
HOP-18 NSCLC
  TGI: 11.8 µM
HOP-62 NSCLC
  TGI: 12.3 µM
HOP-92 NSCLC
  TGI: 6.96 µM
HS 578T breast
  TGI: 21.8 µM
HT29 colon
  TGI: 7.01 µM
IGROV1 ovarian
  TGI: 13.4 µM
K-562 leukemia
  TGI: 6.51 µM
KM12 colon
  TGI: 9 µM
KM20L2 colon
  TGI: 12.3 µM
LOX IMVI melanoma
  TGI: 6.64 µM
LXFL 529 NSCLC
  TGI: 2.26 µM
M14 melanoma
  TGI: 12.2 µM
M19-MEL melanoma
  TGI: 7.91 µM
MALME-3M melanoma
  TGI: 10.6 µM
MCF7 breast
  TGI: 7.73 µM
MDA-MB-435
  TGI: 9.95 µM
MDA-N
  TGI: 10.5 µM
MOLT-4 leukemia
  TGI: 10 µM
NCI-H226 lung
  TGI: 18.3 µM
NCI-H23 lung
  TGI: 13.1 µM
NCI-H460 lung
  TGI: 11.8 µM
NCI-H522 lung
  TGI: 3.18 µM
NCI/ADR-RES ovarian
  TGI: 14 µM
OVCAR-3 ovarian
  TGI: 6.78 µM
OVCAR-4 ovarian
  TGI: 9.24 µM
OVCAR-5 ovarian
  TGI: 18 µM
OVCAR-8 ovarian
  TGI: 7.55 µM
PC-3 prostate
  TGI: 10.8 µM
RPMI-8226 leukemia
  TGI: 2.54 µM
RXF 393 renal
  TGI: 6.18 µM
SF-268 CNS
  TGI: 6.71 µM
SF-295 CNS
  TGI: 16 µM
SF-539 CNS
  TGI: 5.61 µM
SK-MEL-2 melanoma
  TGI: 12 µM
SK-MEL-28 melanoma
  TGI: 12.1 µM
SK-MEL-5 melanoma
  TGI: 10.5 µM
SK-OV-3 ovarian
  TGI: 19.7 µM
SN12C renal
  TGI: 7.36 µM
SNB-19 CNS
  TGI: 16.3 µM
SNB-75 CNS
  TGI: 12.5 µM
SNB-78 CNS
  TGI: 25.7 µM
SR leukemia
  TGI: 3.71 µM
SW-620 colon
  TGI: 1.95 µM
TK-10 renal
  TGI: 5.68 µM
U251 CNS
  TGI: 12.8 µM
UACC-257 melanoma
  TGI: 12.9 µM
UACC-62 melanoma
  TGI: 6.19 µM
UO-31 renal
  TGI: 10.3 µM
XF 498 CNS
  TGI: 3.81 µM

## CCOP(=O)(CC(=O)C1=C(O)C(CCCNC(=O)OC(C)(C)C)N(Cc2ccc(OC)c(OC)c2)C1=O)OCC (centres undefined)
786-0 renal
  TGI: > 100 µM
A498 renal
  TGI: > 100 µM
A549 NSCLC
  TGI: > 100 µM
ACHN renal
  TGI: > 100 µM
CCRF-CEM leukemia
  TGI: > 100 µM
COLO 205 colon
  TGI: > 100 µM
DLD-1 colon
  TGI: > 100 µM
DMS 114 small cell lung
  TGI: > 100 µM
DMS 273 small cell lung
  TGI: > 100 µM
EKVX NSCLC
  TGI: > 100 µM
HCC-2998 colon
  TGI: > 100 µM
HCT-116 colon
  TGI: > 100 µM
HL-60(TB) leukemia
  TGI: > 100 µM
HOP-18 NSCLC
  TGI: > 100 µM
HOP-62 NSCLC
  TGI: > 100 µM
HT29 colon
  TGI: > 100 µM
IGROV1 ovarian
  TGI: > 100 µM
K-562 leukemia
  TGI: > 100 µM
KM12 colon
  TGI: > 100 µM
KM20L2 colon
  TGI: > 100 µM
LOX IMVI melanoma
  TGI: > 100 µM
LXFL 529 NSCLC
  TGI: > 100 µM
M14 melanoma
  TGI: > 100 µM
M19-MEL melanoma
  TGI: > 100 µM
MALME-3M melanoma
  TGI: > 100 µM
MOLT-4 leukemia
  TGI: > 100 µM
NCI-H226 lung
  TGI: > 100 µM
NCI-H23 lung
  TGI: > 100 µM
NCI-H460 lung
  TGI: > 100 µM
NCI-H522 lung
  TGI: > 100 µM
OVCAR-3 ovarian
  TGI: > 100 µM
OVCAR-4 ovarian
  TGI: > 100 µM
OVCAR-5 ovarian
  TGI: > 100 µM
OVCAR-8 ovarian
  TGI: > 100 µM
RPMI-8226 leukemia
  TGI: > 100 µM
RXF 393 renal
  TGI: > 100 µM
RXF-631 renal
  TGI: > 100 µM
SF-268 CNS
  TGI: > 100 µM
SF-295 CNS
  TGI: > 100 µM
SF-539 CNS
  TGI: > 100 µM
SK-MEL-2 melanoma
  TGI: > 100 µM
SK-MEL-28 melanoma
  TGI: > 100 µM
SK-MEL-5 melanoma
  TGI: > 100 µM
SN12C renal
  TGI: > 100 µM
SNB-19 CNS
  TGI: > 100 µM
SNB-75 CNS
  TGI: > 100 µM
SR leukemia
  TGI: > 100 µM
SW-620 colon
  TGI: > 100 µM
TK-10 renal
  TGI: > 100 µM
U251 CNS
  TGI: > 100 µM
UACC-257 melanoma
  TGI: > 100 µM
UACC-62 melanoma
  TGI: > 100 µM
UO-31 renal
  TGI: > 100 µM
